Reference: PMC11129975, “A first-in-human phase I study of TAS-117, an allosteric AKT inhibitor, in patients with advanced solid tumors” (Cancer Chemotherapy and Pharmacology, 2024)
Marks after values point to notes of the source that are not given here.

Assays:
[1] = Plasma and urine pharmacokinetics of TAS-117 in patients; type: in vivo, human
Method: Blood samples for pharmacokinetic analysis were collected immediately prior to dosing (0 h) and at 0.5, 1, 2, 3, 4, 6, 8, 12, and 24 h post-dose on Day 1 and Day 21 of Cycle 1 for patients in the DEP (QD dosing). For patients who received intermittent dosing regimens, blood was collected immediately prior to dosing (0 h) and at 1, 2, 3, 4, 6, 8, 10, and 24 h post-dose on Cycle 1 Day 1; immediately prior to dosing (0 h) on Cycle 1 Days 3, 4, and 8; and immediately prior to dosing (0 h) and at 1, 2, 3, 4, 6, 8, 10, 24, 48, and 96 h post-dose on Cycle 1 Day 18. Urine samples for pharmacokinetic analysis were collected immediately prior to dosing (single sample collection) and from 0 to 6 h and from 6 to 12 h and 12 to 24 h post-dose on Day 1 of Cycle 1 for both QD and intermittent dosing. Blood samples for pharmacodynamic analysis were collected at pre-dose and 4, 8, and 24 h post-dose on Cycle 1 Day 1, and at pre-dose and 4 h post-dose on Cycle 1 Day 21 (QD dosing) or Cycle 1 Day 18 (intermittent dosing).
Descriptive data were used to summarize safety data and antitumor activity. Pharmacokinetic parameters were derived using non-compartmental analysis and summarized descriptively by dose level, study day, and study phase. […] The accumulation of TAS-117 was assessed by comparing pharmacokinetic parameters on Day 1 and Day 21 (QD) or Day 18 (intermittent dosing). Pharmacodynamic data were presented using summary statistics of the ratio of pPRAS40/total PRAS40 to baseline values (pre-dose) on Day 1 and Day 18 or 21, by dose level and treatment regimen. Pharmacogenomics data were summarized, and the relevance between biomarkers and efficacy was analyzed using Fisher’s Exact test.
P-values < 0.05 were considered significant. Missing data were not imputed, and analyses were performed using all available data. Plasma pharmacokinetic parameters were evaluated using Phoenix® WinNonlin® software (Pharsight Corporation as part of Certara, Princeton, NJ, US, Version 8.1 or 8.3). Statistical analyses were performed using SAS version 9.4 (SAS Institute; Cary, NC, US).

[2] = tested on: AKT; assay: Ratio of pPRAS40/total PRAS40 in platelet-rich plasma (electrochemiluminescence); type: in vivo, human; details: at any time point; DEP, RMP and SAP; dose levels 2 to 5 (8 to 32 mg/body/day)
Method: Blood samples for pharmacokinetic analysis were collected immediately prior to dosing (0 h) and at 0.5, 1, 2, 3, 4, 6, 8, 12, and 24 h post-dose on Day 1 and Day 21 of Cycle 1 for patients in the DEP (QD dosing). For patients who received intermittent dosing regimens, blood was collected immediately prior to dosing (0 h) and at 1, 2, 3, 4, 6, 8, 10, and 24 h post-dose on Cycle 1 Day 1; immediately prior to dosing (0 h) on Cycle 1 Days 3, 4, and 8; and immediately prior to dosing (0 h) and at 1, 2, 3, 4, 6, 8, 10, 24, 48, and 96 h post-dose on Cycle 1 Day 18. […]
The pharmacodynamic activity of TAS-117 for AKT inhibition was evaluated by the change in the ratio of pPRAS40 (threonine 246) to total PRAS40 in platelet-rich plasma samples before and after TAS-117 administration. The phosphorylation status of PRAS40 in the blood was measured with an electrochemiluminescence detection assay using a Meso Scale Discovery instrument (Meso Scale Diagnostics, Rockville, MD, US). For efficacy, solid tumors were assessed using Response Evaluation Criteria in Solid Tumors (RECIST; version 1.1). Computed tomography scans were evaluated at baseline, every 6 weeks after initiating TAS-117 administration, and at the time of study discontinuation.

[3] = tested on: KPL-4; details: oral dosing; KPL-4 (HER2 amplification, PIK3CA mutation); cited from earlier work
[4] = DEP, Cycle 1 Day 1, 8 mg QD, n = 1
[5] = DEP, Cycle 1 Day 1, 16 mg QD, n = 6
[6] = DEP, Cycle 1 Day 1, 24 mg QD, n = 3
[7] = DEP, Cycle 1 Day 1, 24 mg QD, n = 2
[8] = DEP, Cycle 1 Day 21, 8 mg QD, n = 1
[9] = DEP, Cycle 1 Day 21, 16 mg QD, n = 3
[10] = DEP, Cycle 1 Day 21, 16 mg QD, n = 2
[11] = DEP, Day 21 vs Day 1, 16 mg QD, n = 3
[12] = RMP, Cycle 1 Day 1, 24 mg intermittent dosing (4 days on/3 days off), n = 6
[13] = RMP, Cycle 1 Day 1, 24 mg intermittent dosing (4 days on/3 days off), n = 5
[14] = RMP, Cycle 1 Day 1, 32 mg intermittent dosing (4 days on/3 days off), n = 4
[15] = RMP, Cycle 1 Day 18, 24 mg intermittent dosing (4 days on/3 days off), n = 5
[16] = RMP, Cycle 1 Day 18, 32 mg intermittent dosing (4 days on/3 days off), n = 1
[17] = RMP, Day 18 vs Day 1, 24 mg intermittent dosing, n = 5
[18] = RMP, Day 18 vs Day 1, 32 mg intermittent dosing, n = 1

For `C[C@]1(O)C[C@@](N)(c2ccc(-c3nc4n(c3-c3ccccc3)COc3ccncc3-4)cc2)C1` [TAS-117], the “Dose proportionality of Cmax, AUClast and AUC0–24” value ([1]; 8 to 32 mg dose range) was “dose proportional”, the “AUC0–24” value [1, 4] was 164 ng·h/mL and the AUClast [1, 4] was 165 ng·h/mL. For the same molecule, the CLr [1, 4] was 4.11 L/h, the Cmax [1, 4] was 8.82 ng/mL and the t1/2 [1, 4] was 21.96 h. For the same molecule, the tmax [1, 4] was 1.93 h, the Fe ([1]; DEP, Cycle 1 Day 1, 8 mg QD, n = 1, urinary excretion rate as percentage of dose) was 8.45% and the “AUC0–24, Mean (SD)” value [1, 5] was 315 (73) ng·hr/mL. The “AUC0–24, gMean” value [1, 5] was 308 ng·h/mL, the “AUClast, Mean (SD)” value [1, 5] was 316 (73) ng·hr/mL and the “AUClast, gMean” value [1, 5] was 308 ng·h/mL. The “CLr, Mean (SD)” value [1, 5] was 5.20 (2.19) L/h, the “CLr, gMean” value [1, 5] was 4.78 L/h and the “Cmax, Mean (SD)” value [1, 5] was 25.1 (7.66) ng/mL. The “Cmax, gMean” value [1, 5] was 24.1 ng/mL, the “Fe, Mean (SD)” value [1, 5] was 10.43 (4.94) % and the “Fe, gMean” value [1, 5] was 9.20%. The “t1/2, Mean (SD)” value [1, 5] was 26.98 (6.06) h, the “t1/2, gMean” value [1, 5] was 26.40 h and the “tmax, median (min, max)” value [1, 5] was 2.98 (1.88, 3.89)^c h. For the same molecule, the “AUC0–24, Mean (SD)” value [1, 6] was 438 (194) ng·hr/mL, the “AUC0–24, gMean” value [1, 6] was 407 ng·h/mL and the “AUClast, Mean (SD)” value [1, 6] was 438 (193) ng·hr/mL. The “AUClast, gMean” value [1, 6] was 408 ng·h/mL, the “CLr, Mean (SD)” value [1, 6] was 6.39 (2.72) L/h and the “CLr, gMean” value [1, 6] was 6.04 L/h. The “Cmax, Mean (SD)” value [1, 6] was 31.0 (15.7) ng/mL, the “Cmax, gMean” value [1, 6] was 28.6 ng/mL and the “Fe, Mean (SD)” value [1, 6] was 10.48 (2.73) %. The “Fe, gMean” value [1, 6] was 10.25%, the “tmax, median (min, max)” value [1, 6] was 3.98 (3.92, 6.00)^c h and the “t1/2, Mean (SD)” value [1, 7] was 23.06 (NC)^d h. For the same molecule, the “t1/2, gMean” value [1, 7] was 22.61^d h, the AUClast [1, 8] was 604 ng·h/mL and the Cmax [1, 8] was 33.1 ng/mL. The tmax [1, 8] was 7.85 h, the “AUC0–24, Mean (SD)” value [1, 9] was 865 (216) ng·hr/mL and the “AUC0–24, gMean” value [1, 9] was 846 ng·h/mL. For the same molecule, the “AUClast, Mean (SD)” value [1, 9] was 864 (220) ng·hr/mL, the “AUClast, gMean” value [1, 9] was 844 ng·h/mL and the “Cmax, Mean (SD)” value [1, 9] was 61.4 (22.2) ng/mL. The “Cmax, gMean” value [1, 9] was 58.3 ng/mL, the “tmax, median (min, max)” value [1, 9] was 1.93 (1.87, 2.02)^c h and the “t1/2, Mean (SD)” value [1, 10] was 41.65 (NC)^d h. The “t1/2, gMean” value [1, 10] was 41.23^d h, the “Observed accumulation ratio of Cmax” value ([1]; DEP, Day 21 vs Day 1, 8 mg QD, n = 1) was 3.75 and the “Observed accumulation ratio of AUC0–24, Mean (SD)” value [1, 11] was 2.84 (0.04). For the same molecule, the “Observed accumulation ratio of AUC0–24, gMean” value [1, 11] was 2.83, the “Observed accumulation ratio of Cmax, Mean (SD)” value [1, 11] was 2.71 (0.48) and the “Observed accumulation ratio of Cmax, gMean” value [1, 11] was 2.69. For the same molecule, the “AUC0–24, Mean (SD)” value [1, 12] was 543 (108) ng·hr/mL, the “AUC0–24, gMean” value [1, 12] was 534 ng·h/mL and the “AUClast, Mean (SD)” value [1, 12] was 542 (107) ng·hr/mL. The “AUClast, gMean” value [1, 12] was 533 ng·h/mL, the “CLr, Mean (SD)” value [1, 12] was 4.55 (1.43) L/h and the “CLr, gMean” value [1, 12] was 4.34 L/h. For the same molecule, the “Cmax, Mean (SD)” value [1, 12] was 42.1 (11.1) ng/mL, the “Cmax, gMean” value [1, 12] was 40.9 ng/mL and the “Fe, Mean (SD)” value [1, 12] was 10.02 (2.85) %. For the same molecule, the “Fe, gMean” value [1, 12] was 9.65%, the “tmax, median (min, max)” value [1, 12] was 3.28 (0.95, 4.15)^c h and the “t1/2, Mean (SD)” value [1, 13] was 31.92 (10.77)^e h. The “t1/2, gMean” value [1, 13] was 30.44^e h, the “AUC0–24, Mean (SD)” value [1, 14] was 770 (155) ng·hr/mL and the “AUC0–24, gMean” value [1, 14] was 758 ng·h/mL. For the same molecule, the “AUClast, Mean (SD)” value [1, 14] was 774 (162) ng·hr/mL, the “AUClast, gMean” value [1, 14] was 761 ng·h/mL and the “CLr, Mean (SD)” value [1, 14] was 4.12 (1.82) L/h. The “CLr, gMean” value [1, 14] was 3.80 L/h, the “Cmax, Mean (SD)” value [1, 14] was 60 (18.4) ng/mL and the “Cmax, gMean” value [1, 14] was 58.0 ng/mL. For the same molecule, the “Fe, Mean (SD)” value [1, 14] was 9.32 (2.71) %, the “Fe, gMean” value [1, 14] was 9.01% and the “t1/2, Mean (SD)” value [1, 14] was 24.02 (3.80) h. The “t1/2, gMean” value [1, 14] was 23.81 h, the “tmax, median (min, max)” value [1, 14] was 2.43 (1.95, 4.03)^c h and the “AUC0–24, Mean (SD)” value [1, 15] was 1498 (500) ng·hr/mL. For the same molecule, the “AUC0–24, gMean” value [1, 15] was 1433 ng·h/mL, the “AUClast, Mean (SD)” value [1, 15] was 3542 (1023) ng·hr/mL and the “AUClast, gMean” value [1, 15] was 3420 ng·h/mL. For the same molecule, the “Cmax, Mean (SD)” value [1, 15] was 89.9 (37.4) ng/mL, the “Cmax, gMean” value [1, 15] was 83.8 ng/mL and the “t1/2, Mean (SD)” value [1, 15] was 49.31 (7.73) h. For the same molecule, the “t1/2, gMean” value [1, 15] was 48.83 h, the “tmax, median (min, max)” value [1, 15] was 2.00 (0.98, 5.92)^c h and the “AUC0–24” value [1, 16] was 2105 ng·h/mL. It also gave an AUClast [1, 16] of 5558 ng·h/mL, a Cmax [1, 16] of 160 ng/mL and a t1/2 [1, 16] of 49.63 h. For the same molecule, the tmax [1, 16] was 1.00 h, the “Observed accumulation ratio of AUC0–24, Mean (SD)” value [1, 17] was 2.70 (0.37) and the “Observed accumulation ratio of AUC0–24, gMean” value [1, 17] was 2.68. For the same molecule, the “Observed accumulation ratio of Cmax, Mean (SD)” value [1, 17] was 2.06 (0.73), the “Observed accumulation ratio of Cmax, gMean” value [1, 17] was 1.95 and the “Observed accumulation ratio of AUC0–24” value [1, 18] was 2.69. For the same molecule, the “Observed accumulation ratio of Cmax” value [1, 18] was 2.50, the “Steady state reached by” value ([1]; indicated by t1/2 data) was no more than 8 days and the “Reduction in the level of pPRAS40” value [2] was greater than 50%. For the same molecule, the Antitumor activity [3] was “demonstrated single-agent antitumor activity”.
